Experimental data taken from patent US7247634B2, “Rifamycin derivatives effective against drug-resistant microbes” (Cumbre Pharmaceuticals Inc., priority 2004, dated 2007).
≈ marks a conversion by molar mass, not a printed value.

How the values were obtained:
Format in all cases: cell-based
[1] = tested on: Staphylococcus epidermidis ATCC12228; assay: MIC, microbroth dilution (NCCLS); conditions: rifS strain, Cation-Adjusted Mueller-Hinton Broth, 37° C., read-out: Antimicrobial activity (MIC)
[2] = tested on: Haemophilus influenzae ATCC10211; assay: MIC, microbroth dilution (NCCLS); conditions: rifS strain, BHI Broth with NAD and hematin, 37° C., read-out: Antimicrobial activity (MIC)
[3] = tested on: Staphylococcus aureus ATCC29213 rpoB^H418Y; assay: microbe, parasite or virus in culture; conditions: ATCC29213, read-out: Antimicrobial activity (MIC)
Procedure: (§1) Representative compounds were assayed for antimicrobial activity as follows: Minimum Inhibitory Concentrations (“MICs”) were determined by the microbroth dilution method as per NCCLS guidelines (National Committee for Clinical Laboratory Standards. 2000. Methods for dilution antimicrobial susceptibility tests for bacteria that grow aerobically, 5th ed. M7-A5. National Committee for Clinical Laboratory Standards, Wayne, Pa.), except that all growth incubations were conducted at 37° C. Bacterial cultures were tested in the following bacteriological media: S. aureus, S. epidermidis, and E. coli in Cation-Adjusted Mueller-Hinton Broth, S. pneumoniae in THY Broth supplemented with 1 mg/mL catalase under 5% CO2 atmosphere, S. pyogenes in THY Broth, E. faecalis in BHI Broth, H. influenzae in BHI Broth supplemented with 0.75 μL of 1 mg/mL NAD and 150 μL of 1 mg/ml hematin per 5 mL, and M. smegmatis in Middlebrook Broth plus ADC Enrichment.
(§2) S. aureus ATCC 29213 RpoB^H418Y is a rifampin-resistant strain with a mutation in RNA polymerase, the biological target of rifamycin antibiotics. […] S. aureus EN1252a gyrA^S84L grlA^S80F is a quinolone-resistant strain due to double mutations to DNA gyrase and topoisomerase IV, the two biological targets for quinolone antibiotics.

[4] = tested on: Staphylococcus aureus EN1252a gyrA^S84L grlA^S80F; assay: microbe, parasite or virus in culture; conditions: read-out: Antimicrobial activity (MIC)
Procedure: as §1, §2

[5] = tested on: Staphylococcus aureus ATCC29213 rpoB^D417Y; assay: microbe, parasite or virus in culture; conditions: ATCC29213, read-out: Antimicrobial activity (MIC)
Procedure: as §1, §2

[6] = tested on: Mycobacterium smegmatis ATCC700084; assay: MIC, microbroth dilution (NCCLS); conditions: Mycolicibacterium smegmatis, rifS strain, Middlebrook Broth plus ADC Enrichment, 37° C., read-out: Antimicrobial activity (MIC)
[7] = tested on: Streptococcus pyogenes ATCC19615; assay: MIC, microbroth dilution (NCCLS); conditions: rifS strain, THY Broth, 37° C., read-out: Antimicrobial activity (MIC)
[8] = tested on: Staphylococcus aureus ATCC29213; assay: MIC, microbroth dilution (NCCLS); conditions: rifS strain, Cation-Adjusted Mueller-Hinton Broth, 37° C., read-out: Antimicrobial activity (MIC)
[9] = tested on: Escherichia coli ATCC25922; assay: MIC, microbroth dilution (NCCLS); conditions: rifS strain, Cation-Adjusted Mueller-Hinton Broth, 37° C., read-out: Antimicrobial activity (MIC)
[10] = tested on: Enterococcus faecalis ATCC29212; assay: MIC, microbroth dilution (NCCLS); conditions: rifS strain, BHI Broth, 37° C., read-out: Antimicrobial activity (MIC)
[11] = tested on: Streptococcus pneumoniae ATCC6303; assay: MIC, microbroth dilution (NCCLS); conditions: rifS strain, THY Broth with 1 mg/mL catalase, 5% CO2, 37° C., read-out: Antimicrobial activity (MIC)

| SMILES | MIC [1] [µg/mL] | MIC [2] [µg/mL] | MIC [3] [µg/mL] | MIC [4] [µg/mL] | MIC [5] [µg/mL] | MIC [6] [µg/mL] | MIC [7] [µg/mL] | MIC [8] [µg/mL] | MIC [9] [µg/mL] | MIC [10] [µg/mL] | MIC [11] [µg/mL] |
| --- | --- | --- | --- | --- | --- | --- | --- | --- | --- | --- | --- |
| CO[C@H]1/C=C/O[C@@]2(C)Oc3c(C)c(O)c4c(c3C2=O)C(=O)C(N2CCN(c3nc5c(cc3F)c(=O)c(C(=O)O)cn5-c3ccc(F)cc3F)CC2)=C(NC(=O)/C(C)=C\C=C\[C@H](C)[C@H](O)[C@@H](C)[C@@H](O)[C@@H](C)[C@H](OC(C)=O)[C@@H]1C)C4=O [Example 5, 3-[4-(3-Carboxy-1-(2,4-difluorophenyl)-6-fluoro-4-oxo-1,4-dihydronaphthyridin-7-yl)piperazin-1-yl]rifamycin S] | 0.008 to 0.063 (≈ 0.00729 to 0.0574 µM) | 0.125 to 2 (≈ 0.114 to 1.82 µM) | 0.06 to 16 (≈ 0.0546 to 14.6 µM) | 0.004 to 0.5 (≈ 0.00364 to 0.455 µM) | 0.06 to 32 (≈ 0.0546 to 29.1 µM) | 0.5 to 64 | 0.008 to 0.063 (≈ 0.00729 to 0.0574 µM) | 0.004 to 0.5 (≈ 0.00364 to 0.455 µM) | 0.125 to 8 (≈ 0.114 to 7.29 µM) | 2 to 32 (≈ 1.82 to 29.1 µM) | 0.008 to 0.125 (≈ 0.00729 to 0.114 µM) |
| CO[C@H]1/C=C/O[C@@]2(C)Oc3c(C)c(O)c4c(c3C2=O)C(=O)C(N2CCC(CCCC3CCN(c5nc6c(cc5F)c(=O)c(C(=O)O)cn6-c5ccc(F)cc5F)CC3)CC2)=C(NC(=O)/C(C)=C\C=C\[C@H](C)[C@H](O)[C@@H](C)[C@@H](O)[C@@H](C)[C@H](OC(C)=O)[C@@H]1C)C4=O [Example 6, 3-[4-[3-[1-[3-Carboxy-1-(2,4-difluorophenyl)-6-fluoro-4-oxo-1,4-dihydronaphthyridin-7-yl]piperidin-4-yl]propyl]piperidin-1-yl]rifamycin S] | 0.008 to 0.063 (≈ 0.00654 to 0.0515 µM) | 0.125 to 2 (≈ 0.102 to 1.64 µM) | 0.06 to 16 (≈ 0.0491 to 13.1 µM) | 0.004 to 0.5 (≈ 0.00327 to 0.409 µM) | 0.06 to 32 (≈ 0.0491 to 26.2 µM) | 0.5 to 64 | 0.008 to 0.063 (≈ 0.00654 to 0.0515 µM) | 0.004 to 0.5 (≈ 0.00327 to 0.409 µM) | 0.125 to 8 (≈ 0.102 to 6.54 µM) | 2 to 32 (≈ 1.64 to 26.2 µM) | 0.008 to 0.125 (≈ 0.00654 to 0.102 µM) |
| CO[C@H]1/C=C/O[C@@]2(C)Oc3c(C)c(O)c4c(c3C2=O)C(=O)C(N[C@@H]2CCN(c3cc5c(cc3F)c(=O)c(C(=O)O)cn5C3CC3)C2)=C(NC(=O)/C(C)=C\C=C\[C@H](C)[C@H](O)[C@@H](C)[C@@H](O)[C@@H](C)[C@H](OC(C)=O)[C@@H]1C)C4=O [Example 8, (R)-3-[1-(3-Carboxy-1-cyclopropyl-6-fluoro-4-oxo-1,4-dihydroquinolin-7-yl)-pyrrolidin-3-ylamino]rifamycin S] | 0.008 to 0.063 (≈ 0.0078 to 0.0615 µM) | 0.125 to 2 (≈ 0.122 to 1.95 µM) | 0.06 to 16 (≈ 0.0585 to 15.6 µM) | 0.004 to 0.5 (≈ 0.0039 to 0.488 µM) | 0.06 to 32 (≈ 0.0585 to 31.2 µM) | 0.5 to 64 | 0.008 to 0.063 (≈ 0.0078 to 0.0615 µM) | 0.004 to 0.5 (≈ 0.0039 to 0.488 µM) | 0.125 to 8 (≈ 0.122 to 7.8 µM) | 2 to 32 (≈ 1.95 to 31.2 µM) | 0.008 to 0.125 (≈ 0.0078 to 0.122 µM) |
| CO[C@H]1/C=C/O[C@@]2(C)Oc3c(C)c(O)c4c(c3C2=O)C(=O)C(N[C@H]2CCN(c3cc5c(cc3F)c(=O)c(C(=O)O)cn5C3CC3)C2)=C(NC(=O)/C(C)=C\C=C\[C@H](C)[C@H](O)[C@@H](C)[C@@H](O)[C@@H](C)[C@H](OC(C)=O)[C@@H]1C)C4=O [Example 9, (S)-3-[1-(3-Carboxy-1-cyclopropyl-6-fluoro-4-oxo-1,4-dihydroquinolin-7-yl)-pyrrolidin-3-ylamino]rifamycin S] | 0.008 to 0.063 (≈ 0.0078 to 0.0615 µM) | 0.125 to 2 (≈ 0.122 to 1.95 µM) | 0.06 to 16 (≈ 0.0585 to 15.6 µM) | 0.004 to 0.5 (≈ 0.0039 to 0.488 µM) | 0.06 to 32 (≈ 0.0585 to 31.2 µM) | 0.5 to 64 | 0.008 to 0.063 (≈ 0.0078 to 0.0615 µM) | 0.004 to 0.5 (≈ 0.0039 to 0.488 µM) | 0.125 to 8 (≈ 0.122 to 7.8 µM) | 2 to 32 (≈ 1.95 to 31.2 µM) | 0.008 to 0.125 (≈ 0.0078 to 0.122 µM) |
| COc1c(N2CCN(C3=C4NC(=O)/C(C)=C\C=C\[C@H](C)[C@H](O)[C@@H](C)[C@@H](O)[C@@H](C)[C@H](OC(C)=O)[C@H](C)[C@@H](OC)/C=C/O[C@@]5(C)Oc6c(C)c(O)c(c(c6C5=O)C3=O)C4=O)C(C)C2)c(F)cc2c(=O)c(C(=O)O)cn(C3CC3)c12 (stereo partly drawn) [Example 10, (R,S)-3-[4-(3-Carboxy-1-cyclopropyl-6-fluoro-8-methoxy-4-oxo-1,4-dihydroquinolin-7-yl)-2-methylpiperazin-1-yl]rifamycin S] | 0.008 to 0.063 (≈ 0.00748 to 0.0589 µM) | 0.125 to 2 (≈ 0.117 to 1.87 µM) | 0.06 to 16 (≈ 0.0561 to 15 µM) | 0.004 to 0.5 (≈ 0.00374 to 0.468 µM) | 0.06 to 32 (≈ 0.0561 to 29.9 µM) | 0.5 to 64 | 0.008 to 0.063 (≈ 0.00748 to 0.0589 µM) | 0.004 to 0.5 (≈ 0.00374 to 0.468 µM) | 0.125 to 8 (≈ 0.117 to 7.48 µM) | 2 to 32 (≈ 1.87 to 29.9 µM) | 0.008 to 0.125 (≈ 0.00748 to 0.117 µM) |
